# According to ChEMBL document CHEMBL5653631, “A Potent and Selective ULK1 Inhibitor Suppresses Autophagy and Sensitizes Cancer Cells to Nutrient Stress” (iScience, 2018):
# Tests used:
# [1] = target: Dual specificity protein kinase CLK2 (Homo sapiens) (UniProt P49760); assay: Inhibition of human recombinant CLK2 at 40 nM in presence of ATP by radiometric assay relative to control
# [2] = target: eIF-2-alpha kinase GCN2 (Homo sapiens) (UniProt Q9P2K8); assay: Inhibition of human recombinant GCN2 at 40 nM related to control ULK1
# [3] = target: T1, Phosphorylase b kinase gamma catalytic chain, liver/testis isoform (Homo sapiens) (UniProt P15735); assay: Inhibition of human recombinant PHKg2 at 40 nM related to control ULK1
# T1 sequence (whole entry): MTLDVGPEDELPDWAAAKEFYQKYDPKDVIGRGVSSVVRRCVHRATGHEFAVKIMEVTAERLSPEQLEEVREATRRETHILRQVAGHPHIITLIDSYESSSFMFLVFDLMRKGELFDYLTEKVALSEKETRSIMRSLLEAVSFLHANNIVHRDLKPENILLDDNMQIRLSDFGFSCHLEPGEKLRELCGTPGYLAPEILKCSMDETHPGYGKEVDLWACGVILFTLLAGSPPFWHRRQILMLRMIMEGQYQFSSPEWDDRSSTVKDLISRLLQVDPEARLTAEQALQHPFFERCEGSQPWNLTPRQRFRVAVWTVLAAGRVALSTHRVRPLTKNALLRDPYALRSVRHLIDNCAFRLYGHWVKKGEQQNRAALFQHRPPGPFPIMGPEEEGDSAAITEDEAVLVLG
# [4] = target: Receptor-type tyrosine-protein kinase FLT3 (Homo sapiens) (UniProt P36888); assay: Inhibition of human recombinant FLT3 at 500 nM in presence of ATP by radiometric assay relative to control
# [5] = target: Homeodomain-interacting protein kinase 1 (Homo sapiens) (UniProt Q86Z02); assay: Inhibition of human recombinant HIPK1 at 500 nM in presence of ATP by radiometric assay relative to control
# [6] = target: T2, MAP kinase-activated protein kinase 5 (Homo sapiens) (UniProt Q8IW41); assay: Inhibition of human recombinant MAPKAPK5 at 500 nM in presence of ATP by radiometric assay relative to control
# T2 sequence (whole entry): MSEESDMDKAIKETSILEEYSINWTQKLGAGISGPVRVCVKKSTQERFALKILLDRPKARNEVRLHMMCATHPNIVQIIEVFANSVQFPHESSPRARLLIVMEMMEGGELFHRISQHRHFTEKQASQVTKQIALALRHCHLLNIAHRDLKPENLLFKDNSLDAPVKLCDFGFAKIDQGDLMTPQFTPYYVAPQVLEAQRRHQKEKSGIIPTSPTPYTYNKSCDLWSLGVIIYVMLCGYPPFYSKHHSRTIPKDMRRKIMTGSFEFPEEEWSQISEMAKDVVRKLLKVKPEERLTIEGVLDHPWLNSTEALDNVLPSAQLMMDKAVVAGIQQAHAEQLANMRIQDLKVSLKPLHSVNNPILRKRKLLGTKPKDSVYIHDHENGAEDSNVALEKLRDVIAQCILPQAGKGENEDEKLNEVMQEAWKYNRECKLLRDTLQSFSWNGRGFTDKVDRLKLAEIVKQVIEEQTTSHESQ
# [7] = target: Serine/threonine-protein kinase SIK3 (Homo sapiens) (UniProt Q9Y2K2); assay: Inhibition of human recombinant QSK at 500 nM in presence of ATP by radiometric assay relative to control
# [8] = target: Serine/threonine-protein kinase 38-like (Homo sapiens) (UniProt Q9Y2H1); assay: Inhibition of human recombinant NDR2 at 500 nM related to control ULK1
# [9] = target: T3, Discoidin domain-containing receptor 2 (Homo sapiens) (UniProt Q16832); assay: Inhibition of human recombinant DDR2 at 15 nM related to control ULK1
# T3 sequence (whole entry): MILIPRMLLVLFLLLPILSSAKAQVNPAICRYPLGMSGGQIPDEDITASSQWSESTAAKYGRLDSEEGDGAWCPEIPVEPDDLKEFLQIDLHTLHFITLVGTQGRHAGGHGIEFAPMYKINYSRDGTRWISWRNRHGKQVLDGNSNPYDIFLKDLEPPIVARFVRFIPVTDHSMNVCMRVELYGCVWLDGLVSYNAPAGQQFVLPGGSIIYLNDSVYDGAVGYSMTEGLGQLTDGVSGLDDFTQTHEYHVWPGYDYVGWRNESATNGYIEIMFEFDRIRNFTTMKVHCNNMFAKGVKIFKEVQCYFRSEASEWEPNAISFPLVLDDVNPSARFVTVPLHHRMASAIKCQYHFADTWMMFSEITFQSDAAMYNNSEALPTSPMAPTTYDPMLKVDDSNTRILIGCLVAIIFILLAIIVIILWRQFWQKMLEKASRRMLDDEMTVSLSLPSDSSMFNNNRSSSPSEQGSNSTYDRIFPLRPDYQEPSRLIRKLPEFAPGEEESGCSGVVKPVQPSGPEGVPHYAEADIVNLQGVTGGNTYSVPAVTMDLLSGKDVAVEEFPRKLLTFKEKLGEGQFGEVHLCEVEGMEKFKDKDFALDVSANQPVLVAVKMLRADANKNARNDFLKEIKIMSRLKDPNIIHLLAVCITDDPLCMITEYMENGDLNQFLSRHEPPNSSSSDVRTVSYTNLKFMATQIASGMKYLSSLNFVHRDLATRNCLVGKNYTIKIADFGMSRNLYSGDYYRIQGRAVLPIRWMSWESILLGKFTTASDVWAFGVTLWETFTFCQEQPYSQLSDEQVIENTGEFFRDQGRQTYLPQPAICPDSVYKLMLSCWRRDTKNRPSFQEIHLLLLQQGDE
# [10] = target: Ribosomal protein S6 kinase alpha-1 (Homo sapiens) (UniProt Q15418); assay: Inhibition of human recombinant RSK1 at 15 nM related to control ULK1
# [11] = target: Ribosomal protein S6 kinase alpha-6 (Homo sapiens) (UniProt Q9UK32); assay: Inhibition of human recombinant RSK4 at 15 nM related to control ULK1
# [12] = target: Serine/threonine-protein kinase SBK1 (Homo sapiens) (UniProt Q52WX2); assay: Inhibition of human recombinant SBK1 at 15 nM related to control ULK1
# Serine/threonine-protein kinase SBK1 (Homo sapiens), sequence (Q52WX2 whole entry): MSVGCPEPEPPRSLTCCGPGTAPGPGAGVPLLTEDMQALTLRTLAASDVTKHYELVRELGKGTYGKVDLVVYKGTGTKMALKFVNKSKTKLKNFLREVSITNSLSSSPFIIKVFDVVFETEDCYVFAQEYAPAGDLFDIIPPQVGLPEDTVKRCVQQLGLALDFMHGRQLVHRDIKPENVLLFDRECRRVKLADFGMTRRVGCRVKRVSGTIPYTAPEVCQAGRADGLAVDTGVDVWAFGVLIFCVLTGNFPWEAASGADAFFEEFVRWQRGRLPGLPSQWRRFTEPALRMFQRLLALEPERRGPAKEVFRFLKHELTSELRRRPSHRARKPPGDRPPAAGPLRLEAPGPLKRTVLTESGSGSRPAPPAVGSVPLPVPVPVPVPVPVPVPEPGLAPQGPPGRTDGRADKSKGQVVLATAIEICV
# Receptor-type tyrosine-protein kinase FLT3 (Homo sapiens), sequence (P36888 whole entry): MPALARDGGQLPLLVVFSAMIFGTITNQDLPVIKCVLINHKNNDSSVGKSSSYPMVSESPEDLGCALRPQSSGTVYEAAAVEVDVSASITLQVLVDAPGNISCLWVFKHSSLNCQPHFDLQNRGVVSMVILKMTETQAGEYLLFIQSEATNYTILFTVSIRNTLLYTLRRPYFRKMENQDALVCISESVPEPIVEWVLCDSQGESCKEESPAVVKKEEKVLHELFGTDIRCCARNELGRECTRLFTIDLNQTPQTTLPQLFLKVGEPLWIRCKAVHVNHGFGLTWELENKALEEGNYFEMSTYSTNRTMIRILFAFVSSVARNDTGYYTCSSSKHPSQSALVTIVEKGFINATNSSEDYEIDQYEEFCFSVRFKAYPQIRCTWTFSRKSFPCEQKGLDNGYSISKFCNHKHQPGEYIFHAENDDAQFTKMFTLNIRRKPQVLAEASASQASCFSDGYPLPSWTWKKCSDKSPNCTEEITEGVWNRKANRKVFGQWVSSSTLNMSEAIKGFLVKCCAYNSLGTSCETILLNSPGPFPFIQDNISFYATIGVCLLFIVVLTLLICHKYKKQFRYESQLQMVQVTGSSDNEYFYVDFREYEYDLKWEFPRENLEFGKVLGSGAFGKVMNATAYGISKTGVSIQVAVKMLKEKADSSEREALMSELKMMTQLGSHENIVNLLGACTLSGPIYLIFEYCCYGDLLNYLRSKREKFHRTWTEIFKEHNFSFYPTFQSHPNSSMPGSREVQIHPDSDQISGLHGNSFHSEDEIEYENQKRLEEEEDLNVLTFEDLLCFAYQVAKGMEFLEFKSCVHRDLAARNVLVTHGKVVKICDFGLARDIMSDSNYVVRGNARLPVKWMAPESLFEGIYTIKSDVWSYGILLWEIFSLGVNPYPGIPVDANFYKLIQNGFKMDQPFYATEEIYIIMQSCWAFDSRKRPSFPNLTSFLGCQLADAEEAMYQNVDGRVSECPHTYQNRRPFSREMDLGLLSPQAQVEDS
# Dual specificity protein kinase CLK2 (Homo sapiens), sequence (P49760 whole entry, looked up): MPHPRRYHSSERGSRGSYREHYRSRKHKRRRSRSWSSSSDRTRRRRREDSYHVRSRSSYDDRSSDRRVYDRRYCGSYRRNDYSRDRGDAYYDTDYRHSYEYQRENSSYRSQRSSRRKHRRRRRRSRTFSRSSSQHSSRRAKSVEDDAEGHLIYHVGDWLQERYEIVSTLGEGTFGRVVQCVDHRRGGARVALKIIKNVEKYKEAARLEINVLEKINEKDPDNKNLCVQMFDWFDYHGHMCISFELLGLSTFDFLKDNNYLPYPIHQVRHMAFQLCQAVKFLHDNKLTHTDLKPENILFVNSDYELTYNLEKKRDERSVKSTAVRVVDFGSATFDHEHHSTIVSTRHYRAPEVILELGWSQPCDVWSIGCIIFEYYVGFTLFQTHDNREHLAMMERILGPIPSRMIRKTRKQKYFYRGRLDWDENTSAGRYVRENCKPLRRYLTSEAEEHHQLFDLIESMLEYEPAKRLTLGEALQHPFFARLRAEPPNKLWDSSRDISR
# Serine/threonine-protein kinase 38-like (Homo sapiens), sequence (Q9Y2H1 2-464 limits assumed): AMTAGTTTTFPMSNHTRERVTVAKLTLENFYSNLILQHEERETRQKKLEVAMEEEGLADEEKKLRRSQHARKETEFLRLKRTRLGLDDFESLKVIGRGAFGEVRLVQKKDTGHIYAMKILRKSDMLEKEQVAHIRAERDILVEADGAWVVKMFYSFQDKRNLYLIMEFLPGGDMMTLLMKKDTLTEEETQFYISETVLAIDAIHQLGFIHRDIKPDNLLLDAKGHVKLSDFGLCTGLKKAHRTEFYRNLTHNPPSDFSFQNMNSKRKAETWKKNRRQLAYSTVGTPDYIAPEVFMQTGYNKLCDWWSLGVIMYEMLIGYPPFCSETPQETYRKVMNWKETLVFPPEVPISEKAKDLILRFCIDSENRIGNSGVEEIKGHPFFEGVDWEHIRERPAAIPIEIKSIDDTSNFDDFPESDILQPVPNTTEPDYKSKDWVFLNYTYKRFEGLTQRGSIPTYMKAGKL
# Ribosomal protein S6 kinase alpha-6 (Homo sapiens), sequence (Q9UK32 whole entry): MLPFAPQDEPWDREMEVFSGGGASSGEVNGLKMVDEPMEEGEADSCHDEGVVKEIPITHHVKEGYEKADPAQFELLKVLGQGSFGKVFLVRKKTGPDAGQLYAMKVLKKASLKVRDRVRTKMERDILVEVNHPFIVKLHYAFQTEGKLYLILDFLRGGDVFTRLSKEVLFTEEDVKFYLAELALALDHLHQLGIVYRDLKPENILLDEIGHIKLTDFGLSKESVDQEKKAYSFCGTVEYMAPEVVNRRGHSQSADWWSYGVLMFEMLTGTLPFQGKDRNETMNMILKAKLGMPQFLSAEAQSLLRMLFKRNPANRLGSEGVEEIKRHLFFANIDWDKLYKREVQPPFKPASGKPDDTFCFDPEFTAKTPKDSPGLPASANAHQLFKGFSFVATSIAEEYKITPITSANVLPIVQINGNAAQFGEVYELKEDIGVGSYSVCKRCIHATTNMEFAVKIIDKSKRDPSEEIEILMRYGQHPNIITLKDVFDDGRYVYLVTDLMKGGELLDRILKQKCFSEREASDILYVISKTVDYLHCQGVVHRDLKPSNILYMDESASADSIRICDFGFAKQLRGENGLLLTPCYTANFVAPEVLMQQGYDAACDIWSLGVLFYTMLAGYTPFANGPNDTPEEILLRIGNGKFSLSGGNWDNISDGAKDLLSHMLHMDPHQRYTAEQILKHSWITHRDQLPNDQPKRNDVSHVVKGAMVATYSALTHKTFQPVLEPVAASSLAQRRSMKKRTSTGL
# Serine/threonine-protein kinase SIK3 (Homo sapiens), sequence (Q9Y2K2 whole entry, looked up): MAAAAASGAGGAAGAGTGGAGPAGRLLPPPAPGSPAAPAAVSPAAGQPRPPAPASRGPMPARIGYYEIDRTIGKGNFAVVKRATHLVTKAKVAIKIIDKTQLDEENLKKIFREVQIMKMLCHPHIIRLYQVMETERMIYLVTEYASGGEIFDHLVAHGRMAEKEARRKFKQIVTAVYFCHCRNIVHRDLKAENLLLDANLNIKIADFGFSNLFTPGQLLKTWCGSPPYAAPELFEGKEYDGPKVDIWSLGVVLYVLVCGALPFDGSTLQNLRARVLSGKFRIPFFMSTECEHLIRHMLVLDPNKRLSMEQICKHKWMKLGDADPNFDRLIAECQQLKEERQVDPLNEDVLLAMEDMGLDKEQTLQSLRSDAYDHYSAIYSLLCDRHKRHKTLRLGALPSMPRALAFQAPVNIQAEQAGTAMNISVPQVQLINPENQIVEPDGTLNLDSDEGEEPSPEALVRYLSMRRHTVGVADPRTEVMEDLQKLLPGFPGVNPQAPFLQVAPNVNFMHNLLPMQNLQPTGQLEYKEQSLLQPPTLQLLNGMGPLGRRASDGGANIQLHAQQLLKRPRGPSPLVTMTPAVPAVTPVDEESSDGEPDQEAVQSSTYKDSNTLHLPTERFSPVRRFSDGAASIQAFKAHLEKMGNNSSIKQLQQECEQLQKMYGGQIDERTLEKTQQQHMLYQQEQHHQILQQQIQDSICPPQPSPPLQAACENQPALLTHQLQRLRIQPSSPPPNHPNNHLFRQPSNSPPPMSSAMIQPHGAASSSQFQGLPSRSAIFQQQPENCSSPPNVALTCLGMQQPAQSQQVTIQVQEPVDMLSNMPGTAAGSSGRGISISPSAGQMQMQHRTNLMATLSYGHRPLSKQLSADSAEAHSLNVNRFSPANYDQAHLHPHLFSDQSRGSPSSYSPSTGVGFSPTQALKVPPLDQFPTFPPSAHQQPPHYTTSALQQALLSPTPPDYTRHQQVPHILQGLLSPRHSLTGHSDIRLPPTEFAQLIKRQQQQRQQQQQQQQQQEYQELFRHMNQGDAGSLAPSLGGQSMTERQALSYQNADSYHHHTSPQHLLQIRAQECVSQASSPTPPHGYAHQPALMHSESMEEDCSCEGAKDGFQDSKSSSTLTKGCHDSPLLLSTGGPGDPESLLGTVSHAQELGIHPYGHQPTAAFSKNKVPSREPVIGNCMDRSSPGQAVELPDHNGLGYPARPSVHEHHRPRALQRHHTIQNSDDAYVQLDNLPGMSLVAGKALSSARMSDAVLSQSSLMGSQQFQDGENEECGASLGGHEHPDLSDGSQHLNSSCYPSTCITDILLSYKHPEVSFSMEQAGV
smiles,measurement,setting,value
O=C(N[C@@H](C1CC1)C(F)(F)F)c1cc(-c2cnn3cc(-c4ccc(F)cc4)cnc23)cs1,inhibition,[1],19%
same,fold change (FC),[2],0.05
same,fold change (FC),[3],0
CNC(=O)c1ccccc1Oc1nc(Nc2cc(OC)c(OC)c(OC)c2)ncc1Br,inhibition,[4],57%
same,inhibition,[5],3%
same,inhibition,[6],0%
same,inhibition,[7],8%
same,fold change (FC),[8],0.2
CC(C)[C@H](NC(=O)c1cc(-c2cnn3cc(-c4ccc(OCCN5CCCCC5)cc4)cnc23)cs1)C(F)(F)F,fold change (FC),[9],0
same,fold change (FC),[10],0.26
same,fold change (FC),[11],0
same,fold change (FC),[12],0.06
